The results in this text go back to US9656955B2, “Pyrrolidine derivatives, pharmaceutical compositions containing them, and their use in therapy” (AbbVie Deutschland GmbH & Co. KG, priority 2013, dated 2017).

pKi: −log10 of the molar value. Where only a bound is given, the exact number is not on record here.

The test deals with human GlyT1c transporter (Homo sapiens (Human), UniProt P48067). In words: Radioligand binding assays using recombinant CHO cell membranes expressing human GlyT1. The note with it: radioligand binding, human GlyT1c transporter-expressing CHO cell membranes.
Chain of human GlyT1c transporter (P48067 whole entry): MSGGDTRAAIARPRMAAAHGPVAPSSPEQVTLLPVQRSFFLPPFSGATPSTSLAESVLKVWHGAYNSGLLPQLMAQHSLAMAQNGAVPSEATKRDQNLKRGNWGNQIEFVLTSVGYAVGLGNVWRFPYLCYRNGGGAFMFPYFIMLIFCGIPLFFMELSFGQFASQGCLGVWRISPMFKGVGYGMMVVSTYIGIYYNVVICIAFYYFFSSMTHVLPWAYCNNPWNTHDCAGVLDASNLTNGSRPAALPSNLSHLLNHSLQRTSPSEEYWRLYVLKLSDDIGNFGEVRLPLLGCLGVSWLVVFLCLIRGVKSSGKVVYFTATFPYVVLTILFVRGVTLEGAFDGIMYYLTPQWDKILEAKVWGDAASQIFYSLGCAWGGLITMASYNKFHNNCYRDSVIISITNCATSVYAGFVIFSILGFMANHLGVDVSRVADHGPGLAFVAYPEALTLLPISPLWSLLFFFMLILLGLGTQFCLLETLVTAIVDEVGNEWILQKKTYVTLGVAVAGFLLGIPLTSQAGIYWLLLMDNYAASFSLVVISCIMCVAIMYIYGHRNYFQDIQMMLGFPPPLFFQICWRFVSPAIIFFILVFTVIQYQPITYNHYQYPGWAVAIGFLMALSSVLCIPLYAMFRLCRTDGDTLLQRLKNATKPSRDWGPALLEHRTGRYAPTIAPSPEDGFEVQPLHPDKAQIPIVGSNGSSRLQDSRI
Usually pKi stands for the Ki on a negative log10 scale, so that one unit is a factor of ten. As to `Cn1ccc(S(=O)(=O)N2CC(Nc3ccc(F)c(F)c3)C(c3ccccc3)C2)n1` (centres unmarked) [Example 502, N-(3,4-difluorophenyl)-1-[(1-methyl-1H-pyrazol-3-yl)sulfonyl]-4-phenylpyrrolidin-3-amine], the pKi was ≥ 5.00.
The value for `COC(=O)c1ccc(S(=O)(=O)N2CC(Nc3ccc(F)c(F)c3)C(c3ccccc3)C2)n1C` (centres unmarked) [Example 504, methyl 5-({3-[(3,4-difluorophenyl)amino]-4-phenylpyrrolidin-1-yl}sulfonyl)-1-methyl-1H-pyrrole-2-carboxylate] was ≥ 5.00.
Turning to `Cc1nn(C)c(C)c1S(=O)(=O)N1CC(Nc2ccc(F)c(F)c2)C(c2ccccc2)C1` (centres unmarked) [Example 508, N-(3,4-difluorophenyl)-4-phenyl-1-[(1,3,5-trimethyl-1H-pyrazol-4-yl)sulfonyl]pyrrolidin-3-amine], the pKi was ≥ 5.00.
Take `O=S(=O)(C1CCC1)N1CC(Nc2ccc(F)c(F)c2)C(c2ccccc2)C1` (centres unmarked) [Example 509, 1-(cyclobutylsulfonyl)-N-(3,4-difluorophenyl)-4-phenylpyrrolidin-3-amine]: the pKi is ≥ 5.00.
To `O=S(=O)(c1ccc(Cl)s1)N1CC(Nc2ccc(F)c(F)c2)C(c2ccccc2)C1` (centres unmarked) [Example 511, 1-[(5-chlorothiophen-2-yl)sulfonyl]-N-(3,4-difluorophenyl)-4-phenylpyrrolidin-3-amine] belongs ≥ 5.00; to `Cn1nccc1S(=O)(=O)N1CC(Nc2ccc(F)c(F)c2)C(c2ccccc2)C1` (centres unmarked) [Example 516, N-(3,4-difluorophenyl)-1-[(1-methyl-1H-pyrazol-5-yl)sulfonyl]-4-phenylpyrrolidin-3-amine], ≥ 5.00.
The value for `Cn1cnc(S(=O)(=O)N2C[C@H](Nc3ccc(Cl)c(C(F)(F)F)c3)[C@@H](c3ccc(F)cc3)C2)c1` [Example 540, (3R,4S)—N-[4-chloro-3-(trifluoromethyl)phenyl]-4-(4-fluorophenyl)-1-[(1-methyl-1H-imidazol-4-yl)sulfonyl]pyrrolidin-3-amine] was ≥ 7.00; that for `CC(C)COC(=O)N[C@H]1CN(S(=O)(=O)c2cn(C)cn2)C[C@@H]1c1ccccc1` [Example 543, 2-methylpropyl {(3R,4S)-1-[(1-methyl-1H-imidazol-4-yl)sulfonyl]-4-phenylpyrrolidin-3-yl}carbamate] was ≥ 5.00.
To `CCCCCCN[C@H]1CN(S(=O)(=O)c2cn(C)cn2)C[C@@H]1c1ccccc1` [Example 548, (3R,4S)—N-hexyl-1-[(1-methyl-1H-imidazol-4-yl)sulfonyl]-4-phenylpyrrolidin-3-amine] belongs ≥ 8.00; to `Cn1cnc(S(=O)(=O)N2C[C@H](NCC3CCOC(C)(C)C3)[C@@H](c3ccccc3)C2)c1` (stereo partly drawn) [Example 557, (3R,4S)—N-[(2,2-dimethyltetrahydro-2H-pyran-4-yl)methyl]-1-[(1-methyl-1H-imidazol-4-yl)sulfonyl]-4-phenylpyrrolidin-3-amine], ≥ 5.00.
Consider `Cn1cnc(S(=O)(=O)N2C[C@H](NCc3cccc4cncn34)[C@@H](c3ccccc3)C2)c1` [Example 560, (3R,4S)—N-(imidazo[1,5-a]pyridin-5-ylmethyl)-1-[(1-methyl-1H-imidazol-4-yl)sulfonyl]-4-phenylpyrrolidin-3-amine], for which the pKi is ≤ 5.00.
The value for `Cn1cnc(S(=O)(=O)N2C[C@H](NCc3csc(Cl)n3)[C@@H](c3ccccc3)C2)c1` [Example 562, (3R,4S)—N-[(2-chloro-1,3-thiazol-4-yl)methyl]-1-[(1-methyl-1H-imidazol-4-yl)sulfonyl]-4-phenylpyrrolidin-3-amine] was ≥ 5.00; that for `Cc1cccc2ncc(CN[C@H]3CN(S(=O)(=O)c4cn(C)cn4)C[C@@H]3c3ccccc3)n12` [Example 563, (3R,4S)-1-[(1-methyl-1H-imidazol-4-yl)sulfonyl]-N-[(5-methylimidazo[1,2-a]pyridin-3-yl)methyl]-4-phenylpyrrolidin-3-amine] was ≥ 5.00; that for `Cn1cnc(S(=O)(=O)N2C[C@H](NCCCC3CC3)[C@@H](c3ccccc3)C2)c1` [Example 573, (3R,4S)—N-(3-cyclopropylpropyl)-1-[(1-methyl-1H-imidazol-4-yl)sulfonyl]-4-phenylpyrrolidin-3-amine] was ≥ 7.00.
The value for `Cc1cc(N[C@H]2CN(S(=O)(=O)c3cn(C)cn3)C[C@@H]2c2ccccc2)ncc1F` [Example 574, 5-fluoro-4-methyl-N-{(3R,4S)-1-[(1-methyl-1H-imidazol-4-yl)sulfonyl]-4-phenylpyrrolidin-3-yl}pyridin-2-amine] was ≥ 7.00.
The value for `CC(C)OCCCNC(=O)[C@@H]1CN(S(=O)(=O)c2cn(C)cn2)C[C@H]1c1ccc(F)cc1` [Example 577, (3S,4R)-4-(4-fluorophenyl)-1-[(1-methyl-1H-imidazol-4-yl)sulfonyl]-N-[3-(propan-2-yloxy)propyl]pyrrolidine-3-carboxamide] was < 5.00; that for `CCCCNC(=O)[C@@H]1CN(S(=O)(=O)c2cn(C)cn2)C[C@H]1c1ccc(F)cc1` [Example 581, (3S,4R)—N-butyl-4-(4-fluorophenyl)-1-[(1-methyl-1H-imidazol-4-yl)sulfonyl]pyrrolidine-3-carboxamide] was ≥ 7.00; that for `Cn1cnc(S(=O)(=O)N2CC(Nc3cccc(C(F)(F)F)c3)C(C3CCCO3)C2)c1` (centres unmarked) [Example 603, 1-[(1-methyl-1H-imidazol-4-yl)sulfonyl]-4-(tetrahydrofuran-2-yl)-N-[3-(trifluoromethyl)phenyl]pyrrolidin-3-amine] was ≥ 7.00.
Turning to `Cn1cnc(S(=O)(=O)N2C[C@H](Nc3cccc(C(F)(F)F)c3)[C@@H](C3CCCO3)C2)c1` (stereo partly drawn) [Example 604, (3R,4S)-1-[(1-methyl-1H-imidazol-4-yl)sulfonyl]-4-(tetrahydrofuran-2-yl)-N-[3-(trifluoromethyl)phenyl]pyrrolidin-3-amine], the pKi was ≥ 7.00.
To `CCCOc1cc(N[C@H]2CN(S(=O)(=O)c3cn(C)cn3)C[C@@H]2c2ccccc2)ncn1` [Example 622, N-{(3R,4S)-1-[(1-methyl-1H-imidazol-4-yl)sulfonyl]-4-phenylpyrrolidin-3-yl}-6-propoxypyrimidin-4-amine] belongs ≥ 7.00; to `CCCCOc1cc(N[C@H]2CN(S(=O)(=O)c3cn(C)cn3)C[C@@H]2c2ccccc2)ncn1` [Example 623, 6-butoxy-N-{(3R,4S)-1-[(1-methyl-1H-imidazol-4-yl)sulfonyl]-4-phenylpyrrolidin-3-yl}pyrimidin-4-amine], ≥ 7.00.
The value for `CCCn1cc(C[C@@H]2CN(S(=O)(=O)c3cn(C)cn3)C[C@H]2c2ccccc2)nn1` [Example 659, 4-({(3S,4R)-1-[(1-methyl-1H-imidazol-4-yl)sulfonyl]-4-phenylpyrrolidin-3-yl}methyl)-1-propyl-1H-1,2,3-triazole] was ≥ 5.00.
`CCCCCCN[C@H]1CN(S(=O)(=O)c2cn(C)cn2)C[C@@H]1c1ccc(F)cc1` [Example 665, (3R,4S)-4-(4-fluorophenyl)-N-hexyl-1-[(1-methyl-1H-imidazol-4-yl)sulfonyl]pyrrolidin-3-amine]: the pKi was ≥ 8.00.
Turning to `CC(C)Oc1cc(N[C@H]2CN(S(=O)(=O)c3cn(C)cn3)C[C@@H]2c2ccc(F)cc2)ncn1` [Example 716, N-{(3R,4S)-4-(4-fluorophenyl)-1-[(1-methyl-1H-imidazol-4-yl)sulfonyl]pyrrolidin-3-yl}-6-(propan-2-yloxy)pyrimidin-4-amine], the pKi is ≥ 7.00.
The value for `Cn1cnc(S(=O)(=O)N2C[C@H](Nc3cc(OC4CCC4)ncn3)[C@@H](c3ccc(F)cc3)C2)c1` [Example 719, 6-(cyclobutyloxy)-N-{(3R,4S)-4-(4-fluorophenyl)-1-[(1-methyl-1H-imidazol-4-yl)sulfonyl]pyrrolidin-3-yl}pyrimidin-4-amine] was ≥ 7.00; that for `Cc1ccc(-c2cc(N[C@H]3CN(S(=O)(=O)c4cn(C)cn4)C[C@@H]3c3ccc(F)cc3)ncn2)cc1` [Example 725, N-{(3R,4S)-4-(4-fluorophenyl)-1-[(1-methyl-1H-imidazol-4-yl)sulfonyl]pyrrolidin-3-yl}-6-(4-methylphenyl)pyrimidin-4-amine] was ≥ 8.00.
For `Cn1cnc(S(=O)(=O)N2C[C@H](Nc3cc(-c4ccc(F)cc4)ncn3)[C@@H](c3ccc(F)cc3)C2)c1` [Example 728, 6-(4-fluorophenyl)-N-{(3R,4S)-4-(4-fluorophenyl)-1-[(1-methyl-1H-imidazol-4-yl)sulfonyl]pyrrolidin-3-yl}pyrimidin-4-amine], the pKi was ≥ 8.00.
The value for `Cn1cnc(S(=O)(=O)N2C[C@H](Nc3cc(-c4ccc(Cl)cc4)ncn3)[C@@H](c3ccc(F)cc3)C2)c1` [Example 730, 6-(4-chlorophenyl)-N-{(3R,4S)-4-(4-fluorophenyl)-1-[(1-methyl-1H-imidazol-4-yl)sulfonyl]pyrrolidin-3-yl}pyrimidin-4-amine] was ≥ 8.00; that for `Cc1ccc(CO[C@H]2CN(S(=O)(=O)c3cn(C)cn3)C[C@@H]2c2ccc(F)cc2)cc1` [Example 731, 4-({(3S,4R)-3-(4-fluorophenyl)-4-[(4-methylbenzyl)oxy]pyrrolidin-1-yl}sulfonyl)-1-methyl-1H-imidazole] was ≥ 7.00.
Consider `Cn1cnc(S(=O)(=O)N2C[C@H](Nc3ccc(F)c(-c4cccnc4)c3)[C@@H](c3ccc(F)cc3)C2)c1` [Example 745, (3R,4S)-4-(4-fluorophenyl)-N-[4-fluoro-3-(pyridin-3-yl)phenyl]-1-[(1-methyl-1H-imidazol-4-yl)sulfonyl]pyrrolidin-3-amine], for which the pKi was ≥ 8.00.
Consider `Cc1cc(N[C@H]2CN(S(=O)(=O)c3cn(C)cn3)C[C@@H]2c2ccc(F)cc2)ncc1F` [Example 748, 5-fluoro-N-{(3R,4S)-4-(4-fluorophenyl)-1-[(1-methyl-1H-imidazol-4-yl)sulfonyl]pyrrolidin-3-yl}-4-methylpyridin-2-amine], for which the pKi is ≥ 8.00.
Consider `Cn1cnc(S(=O)(=O)N2C[C@H](NC(=O)CCC(C)(F)F)[C@@H](c3ccc(F)cc3)C2)c1` [Example 754, 4,4-difluoro-N-{(3R,4S)-4-(4-fluorophenyl)-1-[(1-methyl-1H-imidazol-4-yl)sulfonyl]pyrrolidin-3-yl}pentanamide], for which the pKi is ≥ 5.00.
